12 compounds from patent US8431523B2, “Oligomeric biosurfactants in dermatocosmetic compositions” (priority 2006, dated 2013) can be followed below.

Assay [1] concerns fibroblast proliferation. As to the kind of experiment: Cyquant Cell Proliferation Assay. Type of assay: cell-based. As for the experimental part:
For purposes of the present invention, proliferation is assessed using the Cyquant® Cell Proliferation Assay from Molecular Probes. This assay measures increased production of cellular nucleic acids that, in turn, results in increased binding of fluorescent dye.

For assay [2], the system named is P. cepacia. Description: Minimum inhibitory concentration, P. cepacia. It counts as cell-based, Pseudomonas cepacia. The source says:
By “antimicrobial” activity is meant the ability to inhibit the growth of at least one microbial organism selected from the group consisting E. coli, P. aeruginosa, S. aureus and C. albicans, as confirmed by optical density measurement (“OD”). By “inhibition of growth” is meant reduction or absence of an increase greater than 5% in OD, a dimensionless measure of turbidity that is proportional to the amount of microbial cells present in a sample. For illustrative purposes, a OAB according to the present invention is added to a culture plate on which E. coli is present at a final concentration of about 5×10^3 cfu/ml. The plate is then incubated at about 37° C. for about 24 hours at which time the E. coli is resuspended by shaking, and OD is measured at about 600 nm. Thus, a reduction or absence of an increase greater than 5% in OD confirms the antimicrobial nature of the OAB with respect to E. coli. Minimum inhibitory concentration (“MIC”) is a method well-known to those of skill in the art for expressing antimicrobial activity. A compound to be tested is serially diluted into growth medium, inoculated with culture and then incubated. The MIC is the lowest dilution of compound that inhibits or prevents growth of the target microorganism.

SMILES strings stand for the structures. Non-standard residues stand in square brackets, D forms with d. Residues, ends and D or L forms follow the SMILES beside them. *: point of attachment. Palmitoyl = CCCCCCCCCCCCCCCC(=O)*; Myristoyl = CCCCCCCCCCCCCC(=O)*

With `CCCCCCCCCCCCCC(=O)N[C@@H](CCCCN)C(=O)N[C@H](C(=O)N[C@H](C(=O)N[C@@H](CCCCN)C(=O)N[C@@H](CO)C(N)=O)[C@@H](C)O)[C@@H](C)O` [P190, Myr-KTTKS-amide] (Myristoyl-KTTKS-NH2), in assay [1], the “increase fibroblast proliferation (qualitative)” value is on record as “increase fibroblast proliferation”. For the same compound, the “MIC(P. cepacia)” value in assay [2] is on record as not above 100 ppm.
As to `CCCCCCCCCCCCCC(=O)N[C@H](CC(C)C)C(=O)N[C@H](CCCCN)C(=O)N[C@H](CCCCN)C(=O)N[C@H](C)C(=O)N[C@H](CC(C)C)C(=O)N[C@H](CCCCN)C(=O)O` [P286, Myr-d-[LKKALK]-acid] (Myristoyl-[dL][dK][dK][dA][dL][dK]-OH), in assay [2], the “MIC(P. cepacia)” value is reported as not above 100 ppm.
In the case of `CCCCCCCCCCCCCC(=O)N[C@@H](CCCCN)C(=O)N[C@@H](CCCCN)C(=O)N[C@@H](C)C(=O)N[C@@H](CC(C)C)C(N)=O` [P291, Myr-KKAL-amide] (Myristoyl-KKAL-NH2), the “increase fibroblast proliferation (qualitative)” value in assay [1] is listed as “increase fibroblast proliferation”. The “MIC(P. cepacia)” value in assay [2] is reported as not above 100 ppm.
The like results for `CCCCCCCCCCCCCC(=O)N[C@@H](CC(C)C)C(=O)N[C@@H](CCCCN)C(=O)N[C@@H](CCCCN)C(=O)N[C@@H](C)C(=O)N[C@@H](CC(C)C)C(=O)N[C@@H](CCCCN)C(N)=O` [P296, Myr-LKKALK-amide] (Myristoyl-LKKALK-NH2) were, in that order, “increase fibroblast proliferation” and not above 100 ppm.
On the same counts, the results for `CCCCCCCCCCCCCC(=O)N[C@@H](C)C(=O)N[C@@H](Cc1c[nH]cn1)C(=O)N[C@@H](CCCNC(=N)N)C(N)=O` [P322, Myr-AHR-amide] (Myristoyl-Ala-His-Arg-NH2) are “increase fibroblast proliferation” and not above 100 ppm.
The like results for `CCCCCCCCCCCCCC(=O)N[C@@H](CCCNC(=N)N)C(=O)N[C@@H](CCCNC(=N)N)C(=O)N[C@@H](CCCNC(=N)N)C(N)=O` [P342, Myr-RRR-amide] (Myristoyl-Arg-Arg-Arg-NH2) were, in that order, “increase fibroblast proliferation” and not above 100 ppm.
Take `CCCCCCCCCCCCCC(=O)N[C@@H](CCCCN)C(=O)N[C@@H](CCCCN)C(=O)N[C@@H](CCCCN)C(=O)O` [P348, Myr-KKK-acid]: in assay [1], the “increase fibroblast proliferation (qualitative)” value is reported as “increase fibroblast proliferation”. In assay [2], the “MIC(P. cepacia)” value is listed as not above 100 ppm.
On the same counts, the results for `CCCCCCCCCCCCCC(=O)N[C@@H](CCCCN)C(=O)N[C@@H](CCCCN)C(=O)N[C@@H](C)C(=O)N[C@@H](CC(C)C)C(=O)N[C@@H](CCCCN)C(=O)O` [P349, Myr-KKALK-acid] (Myristoyl-KKALK-OH) are “increase fibroblast proliferation” and not above 100 ppm.
As to `CCCCCCCCCCCCCC(=O)N[C@@H](CCCCN)C(=O)N[C@@H](CC(C)C)C(=O)N[C@@H](C)C(=O)N[C@@H](CCCCN)C(=O)N[C@@H](CCCCN)C(=O)O` [P351, Myr-KLAKK-acid] (Myristoyl-KLAKK-OH), the “increase fibroblast proliferation (qualitative)” value in assay [1] is “increase fibroblast proliferation”. For the same compound, in assay [2], the “MIC(P. cepacia)” value is not above 100 ppm.
With `CCCCCCCCCCCCCC(=O)N1CCC[C@H]1C(=O)N[C@@H](CCCCN)C(=O)N[C@@H](CCCCN)C(=O)N[C@@H](C)C(=O)N[C@@H](CC(C)C)C(=O)N[C@@H](CCCCN)C(N)=O` [P364, Myr-PKKALK-amide] (Myristoyl-PKKALK-NH2), in assay [2], the “MIC(P. cepacia)” value is reported as not above 100 ppm.
Still for that read-out and setting: in the case of `CCCCCCCCCCCCCC(=O)N[C@@H](CCCCN)C(=O)N[C@@H](CCCCN)C(=O)N[C@@H](CC(C)C)C(=O)N[C@@H](C)C(=O)N[C@H](CCCCN)C(N)=O` [P365, Myr-KKLA-[K]^D-amide] (Myristoyl-KKLA[dK]-NH2) it was not above 100 ppm.
Take `CCCCCCCCCCCCCCCC(=O)N[C@@H](C)C(=O)N[C@@H](C)C(=O)N[C@@H](CCCCN)C(=O)N[C@@H](CCCNC(=N)N)C(N)=O` [P398, Pal-AAKR-amide] (Palmitoyl-AAKR-NH2): the “MIC(P. cepacia)” value in assay [2] is not above 100 ppm.
